# Laboratory results from patent publication US20210022340A1, “USE OF PYRIDINE UREA COMPOUND HAVING SNAIL-KILLING ACTIVITY” (priority 2017, published 2021).
# System: Danio rerio
# Assay: Acute toxicity to fish
# Assay type: in vivo
# Conditions: applied for 1 hour
row,SMILES,fish death
1,"O=C(Nc1ccc([N+](=O)[O-])cc1Cl)c1cc(Cl)ccc1O [niclosamide, reference compound]",all fish is resulted in almost death

# System: Oncomelania hupensis
# Assay: Snail-killing activity against Oncomelania hupensis (immersion method)
# Assay type: in vivo
# Conditions: 24 h, 24 hours of immersion, 25° C., linear interpolation, read-out: Oncomelania hupensis the LC50 values at the 24th hour
# Protocol: (1): Snail-Killing Activity Against Oncomelania hupensis
# Oncomelania hupensis was used as a tested sample and tested by the immersion method. Operation process: Weigh various samples accurately (compounds of any of Example 1 to Example 16), dissolve each sample with 0.2 mL of N,N-dimethylformamide, and dilute each sample to 0.2 mg/L of the drug solution with dechlorinated tap water. Put 30 snails in each beaker and pour 100 ml of the above-mentioned drug solution into each beaker. And cover the plastic gauze on the beaker to prevent the snails from climbing to the liquid surface. Place the above beakers accommodating the drug solution and snails in the incubator under the conditions which is at 25° C. constant temperature, and the humidity is maintained at 60%. and the light is fully. After 24 hours of immersion in the incubator, the drug solution is poured, and each sample is washed for 3 times by using water. Then, 15 mL of dechlorinated tap water is added to resuscitate each sample for 1 hour. Each sample is resuscitated for 1 hour again after 24 hours, and then activity of the snails is determined by knocking after 24 hours. Each sample was set to repeat 3 times. The tested concentrations were respectively 0.1 mg/L, 0.5 mg/L, 1 mg/L, 2 mg/L, 5 mg/L, and 10 mg/L. A linear interpolation method was used to draw a curve of the percentage of death at the 24th hour relative to the tested concentrations of the prepared compounds, thereby the LC50 values at the 24th hour are obtained.
# A comparison was made with 0.2 mg/L of niclosamide (positive control) and water containing 0.2 mL/L of N,N-dimethylformamide (blank control).
row,SMILES,LC50 [µg/mL]
1,O=C(Nc1cccnc1)Nc1ccc(F)cc1F [Compound 1],5
2,O=C(Nc1ccc(OC(F)(F)F)cc1)Nc1cccnc1 [Compound 2],3.5
3,O=C(Nc1cccnc1)Nc1ccccc1F [Compound 3],4.8
4,O=C(Nc1cccnc1)Nc1cccc(Cl)c1 [Compound 4],5.8
5,O=C(Nc1cccnc1)Nc1ccc(F)cc1C(F)(F)F [Compound 5],8.9
6,O=C(Nc1cccnc1)Nc1ccccc1Cl [Compound 6],9.2
7,O=C(Nc1cccnc1)Nc1ccc(Cl)cc1C(F)(F)F [Compound 7],6.7
8,O=C(Nc1cccnc1)Nc1ccc(Cl)cc1Cl [Compound 8],5.8
9,O=C(Nc1cccnc1)Nc1cc(F)cc(F)c1 [Compound 9],4.3
10,O=C(Nc1ccc([N+](=O)[O-])cc1)Nc1cccnc1 [Compound 10],3.8
11,O=C(Nc1cccnc1)Nc1cccc(F)c1 [Compound 11],4.9
12,Cc1cccc(NC(=O)Nc2cccnc2)c1 [Compound 12],8.2
13,O=C(Nc1ccc(Br)cc1)Nc1cccnc1 [Compound 13],~0.5
14,O=C(Nc1ccc(Cl)cc1)Nc1cccnc1 [Compound 14],~0.5
15,Cc1ccccc1NC(=O)Nc1cccnc1 [Compound 15],7.2
16,Cc1ccc(NC(=O)Nc2cccnc2)cc1 [Compound 16],8.1
17,"O=C(Nc1ccc([N+](=O)[O-])cc1Cl)c1cc(Cl)ccc1O [niclosamide, reference compound]",0.6

# System: not listed separately
# Assay: Acute toxicity to fish
# Assay type: in vivo, Danio rerio
# Conditions: Danio rerio, in vivo, pH 7, 96 hour test cycle, 23±1° C., linear interpolation; read-out: Danio rerio the LC50 values at the 96th hour
# Protocol: (§1) (2): Study on Acute Toxicity to Fish
# (§2) Tested substance: Compound of any of Example 1 to Example 16 of which tested concentrations were respectively 0 mg/L, 20 mg/L, 40 mg/L, 60 mg/L, 80 mg/L, and 100 mg/L.
# (§3) Tested fish species: Danio rerio of which body length was 20±1 mm and weight was 0.3±0.1 g.
# (§4) Test process: The tested fish was domesticated in continuous aerated diluted water for 7 days before the test. The water quality and lighting conditions during the domestication were consistent with the conditions during the test. Feeding was stopped 24 hours before the test. […] The water temperature during the test was constant at 23±1° C. The dissolved oxygen content during the test should be higher than 60% of the air saturation value, and the pH value was 7.0±0.2. The test cycle is 96 hours. The poisoning symptoms and mortality of the tested fish were observed and recorded at any time within 3 hours to 6 hours after starting the test, and then the poisoning symptoms and mortality of the tested fish at different concentrations were observed and recorded at 24th hour, 48th hour, 72th hour, and 96th hour. The criterion for judging dead fish is to knock the tail of the fish with glasses. If the fish had no action, it is judged that the fish was dead.
# (§5) A linear interpolation method was used to draw the curve of the percentage of death relative to the tested concentrations of the compound prepared in Example 4 at 96 hour, thereby the LC50 values at 96th hour are obtained, which was treated with water as a blank control. The LC50 value of the other compound at 96th hour was obtained in this way.
row,SMILES,LC50 at 96 h [µg/mL]
1,O=C(Nc1cccnc1)Nc1ccc(F)cc1F [Compound 1],> 100
2,O=C(Nc1ccc(OC(F)(F)F)cc1)Nc1cccnc1 [Compound 2],> 100
3,O=C(Nc1cccnc1)Nc1ccccc1F [Compound 3],> 100
4,O=C(Nc1cccnc1)Nc1cccc(Cl)c1 [Compound 4],> 100
5,O=C(Nc1cccnc1)Nc1ccc(F)cc1C(F)(F)F [Compound 5],> 100
6,O=C(Nc1cccnc1)Nc1ccccc1Cl [Compound 6],> 100
7,O=C(Nc1cccnc1)Nc1ccc(Cl)cc1C(F)(F)F [Compound 7],> 100
8,O=C(Nc1cccnc1)Nc1ccc(Cl)cc1Cl [Compound 8],> 100
9,O=C(Nc1cccnc1)Nc1cc(F)cc(F)c1 [Compound 9],> 100
10,O=C(Nc1ccc([N+](=O)[O-])cc1)Nc1cccnc1 [Compound 10],> 100
11,O=C(Nc1cccnc1)Nc1cccc(F)c1 [Compound 11],> 100
12,Cc1cccc(NC(=O)Nc2cccnc2)c1 [Compound 12],> 100
13,O=C(Nc1ccc(Br)cc1)Nc1cccnc1 [Compound 13],15
14,O=C(Nc1ccc(Cl)cc1)Nc1cccnc1 [Compound 14],15
15,Cc1ccccc1NC(=O)Nc1cccnc1 [Compound 15],> 100
16,Cc1ccc(NC(=O)Nc2cccnc2)cc1 [Compound 16],> 100
17,"O=C(Nc1ccc([N+](=O)[O-])cc1Cl)c1cc(Cl)ccc1O [niclosamide, reference compound]",0.21

# System: Danio rerio
# Assay: Acute toxicity to fish
# Assay type: in vivo
# Conditions: 96 hour test cycle, 23±1° C., linear interpolation
# Protocol: as §1, §2, §3, §4, §5
row,SMILES,Danio rerio the LC50 values at the 96th hour [µg/mL]
1,"O=C(Nc1ccc([N+](=O)[O-])cc1Cl)c1cc(Cl)ccc1O [niclosamide, reference compound]",0.2
